# Measured values reported in patent publication US20150299238A1, “SYNTHESIS AND USE OF PRODRUG COMPLEXES OF COBALT IN POLYMER THERAPEUTICS” (priority 2014, published 2015).
# “Also recorded” adds a separate entry of the source.
# How the values were obtained:
# [1] = system: SNU-5 cells; test: Nanoparticle uptake by image-based flow cytometry; format: cell-based; conditions: for High uptake (red), percentage of cells / Low uptake (blue), percentage of cells / No uptake (green), percentage of cells: SNU-5, 8 h incubation, 100 μg/mL
# Experimental: An Amnis FlowSight image-based flow cytometer equipped with a 488 nm (60 mW) and Side Scatter (7.85 mW) (EMD Millipore; Seattle, Wash.) was used to analyze cell samples. The FlowSight uses a CCD camera system to simultaneously collect both quantitative fluorescence and image data. For uptake studies, SNU-5 cells were incubated with Co-Alb-FITC NPs in the presence or absence of a commonly used inhibitor of macropinocytosis, 5-(N-ethyl-N-isopropyl)amiloride (EIPA), followed by fixation, and analysis via image-based flow cytometry.
# SNU-5 cells were cultured at 37° C. and 5% CO2 in IMDM medium supplemented with 20% fetal bovine serum at cell densities between 1×10^5 and 1×10^6 cells/mL, and Jurkat cells were cultured at 37° C. and 5% CO2 in RPMI-1640 medium supplemented with 10% fetal bovine serum at cell densities between 1×10^5 and 1×10^6 cells/mL. For nanoparticle uptake experiments, cells were transferred to serum-starved IMDM or RPMI-1640 medium (0.1% FBS) and incubated at 37° C. and 5% CO2 for 10-16 h prior to dosing with nanoparticles. Cells (2 mL, 500,000 cells/mL) were incubated with the desired nanoparticle or control particle solution (100 μg/mL) with or without added EIPA for the times indicated. Cells were then washed twice with PBS, fixed for 12 min in 3.7% formaldehyde in PBS, washed twice with PBS, stained with NucBlue® Fixed Cell ReadyProbes® Reagent, and then washed twice more with PBS. Samples were either analyzed immediately or stored at 4° C. in the dark until analysis.
# [2] = Analysis of PEGylation reaction by DLS, ethanolamine challenge of the Co linkage; format: physicochemical
# Experimental: While sonicating (Branson, model #2510), human transferrin (0.5 mL of a 1 mg/mL aqueous solution, Sigma-Aldrich, cat. #T0665-50MG, lot #SLBC […]) was added. The solution had no discernible color and was allowed to stand undisturbed for 15 min. Dynamic light scattering (DLS, Microtrac Nanotrac Ultra) was used to measure particle size where the volume average particle size was 13.6 nm (standard deviation=4.2 nm). Hydrogen peroxide (20 μL of a 30% solution, Mallinckrodt AR, cat. #5240, lot #5240Y23470) was added while sonicating and the solution was thoroughly mixed by pipetting. The solution became faintly yellow but with no turbity. The solution was allowed to stand undisturbed for 30 min. Analysis of PEGylation reaction by DLS. The average diameter of both human transferrin (6.8 nm, SD=1.8 nm) and H2N-PEG-COOH (4.8 nm, SD=1.2 nm) were measured by DLS (FIG. 5). […] Addition of ethanolamine (50 mM) at this point led to a decrease in particle size back to 6.4 nm (SD=2.0) thereby degrading the prodrug linkage due to facile exchange of the Co amino ligands.
compound,measurement,setting,value
"CCN(c1nc(N)c(C(=O)N=C(N)N)nc1Cl)C(C)C [EIPA, 5-(N-ethyl-N-isopropyl)amiloride]",Cell viability in the uptake experiment,"[1]; SNU-5, 100 μM EIPA",slight decrease in cell viability
same,Effect on uptake of Co-Alb-FITC NPs,"[1]; SNU-5, pre-incubation with inhibitor",dramatic reduction in particle uptake; also recorded: reduce uptake in a dose-dependent manner
same,Inhibitory effect on uptake over time,"[1]; SNU-5, uptake of Co-Alb-FITC NPs","remained relatively constant over 8 h, but became greatly diminished at 24 h"
FITC-Alb only,"High uptake (red), percentage of cells",[1]; EIPA 0 μM,13.9%
same,"Low uptake (blue), percentage of cells",[1]; EIPA 0 μM,45.4%
same,"No uptake (green), percentage of cells",[1]; EIPA 0 μM,40.6%
same,"High uptake (red), percentage of cells",[1]; EIPA 75 μM,16.9%
same,"Low uptake (blue), percentage of cells",[1]; EIPA 75 μM,11.8%
same,"No uptake (green), percentage of cells",[1]; EIPA 75 μM,71.3%
same,Uptake in the presence of EIPA,"[1]; SNU-5, free protein 100 μg/mL, no NPs",reduction in uptake
transferrin-PEG conjugate,Particle size after addition of ethanolamine,"[2]; ethanolamine 50 mM, not oxidized (Co(II))",6.4 nm
same,Average diameter after addition of ethanolamine,[2]; oxidized 30 min with H2O2 (Co(III)) before ethanolamine,18.3 nm
